# Laboratory results reported in patent publication US20250179047A1, “5-[7-(3,4-DIHYDRO-1H-ISOQUINOLINE-2-CARBONYL)-1,2,3,4 TETRAHYDROISOQUINOLIN-6-YL]-1H-PYRROLE-3-CARBOXAMIDE DERIVATIVES, PHARMACEUTICAL COMPOSITIONS CONTAINING THEM AND THEIR USES AS PRO-APOPTOTIC AGENTS” (LES LABORATOIRES SERVIER, priority 2022, published 2025).
# pKi: −log10 of the molar value.
# Assays:
# BCLXL WT = BCLXL WT (Homo sapiens (Human), UniProt Q07817); test: TR-FRET competitive binding assay, BCLXL WT; conditions: for pKi: BCLXL WT, Ki determined from IC50, read-out: TR_FRET EKI BclxL; for TR_FRET EKI BCLxL/WT selectivty ratio: ratio Ki BCLxL / Ki BCL2 WT
# How it was run: (§1)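 Competitive TR-FRET displacement of fluorescein-PUMA peptide (2 or 20 nM) from 0.5 nM terbium-labelled N-terminal Halo-fusion BCL2 (1-207, wild type or mutant) or BCLXL (2-196), expressed in E. coli. Buffer 50 mM Hepes pH 7.5, 150 mM NaCl, 5% DMSO; 2 h at 23°C. 520/495 nm ratio fitted over 11 points for IC50, converted to Ki.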
# BCL2 G101V [1] = biological target: BCL2 G101V (Homo sapiens, UniProt P10415, G101V); test: TR-FRET competitive binding assay, BCL2 G101V; conditions: BCL2 G101V; Ki determined from IC50; read-out: TR_FRET EKI_Bcl2 G101V
# How it was run: as §1
# BCL2 G101V [2] = test: TR-FRET competitive binding assay, BCL2 G101V; design: species or system human; conditions: ratio Ki BCL2 G101V / Ki BCL2 WT
# How it was run: as §1
# KMS-12-PE Bcl-2 G101V = test: In vitro cytotoxicity CellTiter-Glo 48 h, KMS-12-PE Bcl-2 G101V; assay type: cell-based; conditions: for Ratio (G101V/WT): C50 KMS-12-PE Bcl-2 G101V over C50 KMS-12-PE Bcl-2 WT; for IC50: Homo sapiens, KMS-12-PE, 48 h, CellTiter-Glo, C50 = concentration needed to reach 50% of the cellular viability
# How it was run: (§2)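 CTG luminescence read-out; C50 = concentration reaching 50% cellular viability. Cells: KMS-12-PE expressing Bcl-2 WT or G101V (lentiviral, TagRFP-sorted). 11-pt curve, 48 h, 37 °C/5% CO2.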
# BCL2 D103Y = BCL2 D103Y (Homo sapiens, UniProt P10415, D103Y); test: TR-FRET competitive binding assay, BCL2 D103Y; conditions: Ki determined from IC50, read-out: TR_FRET EKI_Bcl2 D103Y
# How it was run: as §1
# BCL2 WT = BCL2 WT (Homo sapiens (Human), UniProt P10415); test: TR-FRET competitive binding assay, BCL2 WT; conditions: Ki determined from IC50, read-out: TR_FRET EKI_Bcl2 WT
# How it was run: as §1
# KMS-12-PE Bcl-2 WT = test: In vitro cytotoxicity CellTiter-Glo 48 h, KMS-12-PE Bcl-2 WT; assay type: cell-based; conditions: Homo sapiens, KMS-12-PE, C50 = concentration needed to reach 50% of the cellular viability
# How it was run: as §2
# Chain of BCLXL WT (Q07817 other isoform, or with tags, fused parts or gaps): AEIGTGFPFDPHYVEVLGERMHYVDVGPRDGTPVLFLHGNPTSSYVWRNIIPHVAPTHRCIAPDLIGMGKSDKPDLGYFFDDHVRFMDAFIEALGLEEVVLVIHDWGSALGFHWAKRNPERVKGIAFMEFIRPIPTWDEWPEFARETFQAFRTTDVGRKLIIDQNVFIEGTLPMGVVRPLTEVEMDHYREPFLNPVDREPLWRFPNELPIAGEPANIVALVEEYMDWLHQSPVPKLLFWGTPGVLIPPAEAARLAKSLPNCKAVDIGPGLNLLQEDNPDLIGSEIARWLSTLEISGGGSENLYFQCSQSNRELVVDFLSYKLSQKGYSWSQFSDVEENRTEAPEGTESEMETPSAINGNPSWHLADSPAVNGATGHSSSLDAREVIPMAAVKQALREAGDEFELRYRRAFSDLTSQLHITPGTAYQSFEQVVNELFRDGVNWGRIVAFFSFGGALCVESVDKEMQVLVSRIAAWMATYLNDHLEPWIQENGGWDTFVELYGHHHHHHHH
SMILES,pKi (BCLXL WT),TR_FRET EKI BCLxL/WT selectivty ratio (BCLXL WT),pKi (BCL2 G101V [1]),TR_FRET EKI G101V/WT selectivty ratio (BCL2 G101V [2]),pKi (BCL2 D103Y),pKi (BCL2 WT),Ratio (G101V/WT) (KMS-12-PE Bcl-2 G101V),IC50 (KMS-12-PE Bcl-2 G101V),IC50 (KMS-12-PE Bcl-2 WT)
"Cc1c(N(C(=O)c2cc(-c3cc4c(cc3C(=O)N3Cc5ccccc5C[C@H]3C)CN(C(=O)Cc3ccccc3)CC4)n(C)c2C)c2ccc(O)cc2F)cc(C#N)n1C [Example 13, N-(5-cyano-1,2-dimethyl-1H-pyrrol-3-yl)-N-(2-fluoro-4-hydroxyphenyl)-1,2-dimethyl-5-{7-[(3R)-3-methyl-1,2,3,4-tetrahydroisoquinoline-2-carbonyl]-2-(2-phenylacetyl)-1,2,3,4-tetrahydroisoquinolin-6-yl}-1H-pyrrole-3-carboxamide]",8.34,4.6,8.70,2.0,8.63,9.00,5.37,0.0704 µM,0.0131 µM
"Cc1c(N(C(=O)c2cc(-c3cc4c(cc3C(=O)N3Cc5ccccc5C[C@H]3C)CN(C(=O)c3n[nH]c5ccccc35)CC4)n(C)c2C)c2ccc(O)cc2)cc(C#N)n1C [Example 15, N-(5-cyano-1,2-dimethyl-1H-pyrrol-3-yl)-N-(4-hydroxyphenyl)-5-[2-(1H-indazole-3-carbonyl)-7-[(3R)-3-methyl-1,2,3,4-tetrahydroisoquinoline-2-carbonyl]-1,2,3,4-tetrahydroisoquinolin-6-yl]-1,2-dimethyl-1H-pyrrole-3-carboxamide]",8.08,12.5,8.21,9.1,8.52,9.17,4.3,0.0714 µM,0.0166 µM
"Cc1c(N(C(=O)c2cc(-c3cc4c(cc3C(=O)N3Cc5ccccc5C[C@H]3C)CN(C(=O)Cc3ccc(Cl)cc3F)CC4)n(C)c2C)c2ccc(O)cc2)cc(C#N)n1C [Example 19, 5-{2-[2-(4-chloro-2-fluorophenyl)acetyl]-7-[(3R)-3-methyl-1,2,3,4-tetrahydroisoquinoline-2-carbonyl]-1,2,3,4-tetrahydroisoquinolin-6-yl}-N-(5-cyano-1,2-dimethyl-1H-pyrrol-3-yl)-N-(4-hydroxyphenyl)-1,2-dimethyl-1H-pyrrole-3-carboxamide]",8.13,18.5,8.72,4.8,9.01,9.40,6.91,0.0423 µM,0.0061 µM
"Cc1c(N(C(=O)c2cc(-c3cc4c(cc3C(=O)N3Cc5ccccc5C[C@H]3C)CN(C(=O)C3Cc5ccccc5O3)CC4)n(C)c2C)c2ccc(O)cc2)cc(C#N)n1C (stereo partly drawn) [Example 20, N-(5-cyano-1,2-dimethylpyrrol-3-yl)-5-{2-[(2,3-dihydro-1-benzofuran-2-yl)carbonyl]-7-{[(3R)-3-methyl-3,4-dihydro-1H-isoquinolin-2-yl]carbonyl}-3,4-dihydro-1H-isoquinolin-6-yl}-N-(4-hydroxyphenyl)-1,2-dimethylpyrrole-3-carboxamide]",8.18,12.5,8.57,5.0,9.17,9.28,6.74,0.0681 µM,0.0101 µM

# More lines, main results first:
pKi (BCLXL WT),TR_FRET EKI BCLxL/WT selectivty ratio (BCLXL WT),pKi (BCL2 G101V [1]),TR_FRET EKI G101V/WT selectivty ratio (BCL2 G101V [2]),pKi (BCL2 D103Y),pKi (BCL2 WT),SMILES,Ratio (G101V/WT) (KMS-12-PE Bcl-2 G101V),IC50 (KMS-12-PE Bcl-2 G101V),IC50 (KMS-12-PE Bcl-2 WT)
8.64,11.5,9.00,5.0,9.09,9.70,"Cc1c(C(=O)N(c2ccc(O)cc2)c2cc(C#N)n(CCN(C)C3CC3)c2C)cc(-c2cc3c(cc2C(=O)N2Cc4ccccc4C[C@H]2C)CN(C(=O)Cc2ccccc2)CC3)n1C [Example 22, N-[5-cyano-1-[2-[cyclopropyl(methyl)amino]ethyl]-2-methyl-pyrrol-3-yl]-N-(4-hydroxyphenyl)-1,2-dimethyl-5-[7-[(3R)-3-methyl-3,4-dihydro-1H-isoquinoline-2-carbonyl]-2-(2-phenylacetyl)-3,4-dihydro-1H-isoquinolin-6-yl]pyrrole-3-carboxamide]",8.47,0.0864 µM,0.0102 µM
8.21,11.5,8.74,3.4,8.99,9.28,"Cc1c(N(C(=O)c2cc(-c3cc4c(cc3C(=O)N3Cc5ccccc5C[C@H]3C)CN(C(=O)Cc3ccc(Br)cc3F)CC4)n(C)c2C)c2ccc(O)cc2)cc(C#N)n1C [Example 24, 5-{2-[2-(4-bromo-2-fluorophenyl)acetyl]-7-[(3R)-3-methyl-1,2,3,4-tetrahydroisoquinoline-2-carbonyl]-1,2,3,4-tetrahydroisoquinolin-6-yl}-N-(5-cyano-1,2-dimethyl-1H-pyrrol-3-yl)-N-(4-hydroxyphenyl)-1,2-dimethyl-1H-pyrrole-3-carboxamide]",7.19,0.0423 µM,0.0059 µM
8.17,10.5,8.77,2.6,8.98,9.19,"Cc1c(N(C(=O)c2cc(-c3cc4c(cc3C(=O)N3Cc5ccccc5C[C@H]3C)CN(C(=O)Cc3ccc(OCCN5CCN(CC(F)(F)F)CC5)cc3)CC4)n(C)c2C)c2ccc(O)cc2)cc(C#N)n1C [Example 32, N-(5-cyano-1,2-dimethyl-1H-pyrrol-3-yl)-N-(4-hydroxyphenyl)-1,2-dimethyl-5-{7-[(3R)-3-methyl-1,2,3,4-tetrahydroisoquinoline-2-carbonyl]-2-[2-(4-{2-[4-(2,2,2-trifluoroethyl)piperazin-1-yl]ethoxy}phenyl)acetyl]-1,2,3,4-tetrahydroisoquinolin-6-yl}-1H-pyrrole-3-carboxamide]",5.38,0.0393 µM,0.0073 µM
8.89,13.0,9.52,2.7,9.55,10.00,"Cc1c(N(C(=O)c2cc(-c3cc4c(cc3C(=O)N3Cc5ccccc5C[C@H]3C)CN(C(=O)Cc3ccc(OCCN5CC6(CCS6(=O)=O)C5)cc3)CC4)n(C)c2C)c2ccc(O)cc2)cc(C#N)n1C [Example 37, N-(5-cyano-1,2-dimethyl-1H-pyrrol-3-yl)-5-(2-{2-[4-(2-{1,1-dioxo-1λ^6-thia-6-azaspiro[3.3]heptan-6-yl}ethoxy)phenyl]acetyl}-7-[(3R)-3-methyl-1,2,3,4-tetrahydroisoquinoline-2-carbonyl]-1,2,3,4-tetrahydroisoquinolin-6-yl)-N-(4-hydroxyphenyl)-1,2-dimethyl-1H-pyrrole-3-carboxamide]",5.36,0.0932 µM,0.0174 µM
8.15,10.3,8.52,4.4,8.68,9.17,"Cc1c(N(C(=O)c2cc(-c3cc4c(cc3C(=O)N3Cc5ccccc5C[C@H]3C)CN(C(=O)Cc3ccc(N5CCN6CC(F)(F)C[C@H]6C5)cc3F)CC4)n(C)c2C)c2ccc(O)cc2)cc(C#N)n1C [Example 40, 5-[2-(2-{4-[(8aS)-7,7-difluoro-hexahydropyrrolo[1,2-a]piperazin-2-yl]-2-fluorophenyl}acetyl)-7-{[(3R)-3-methyl-3,4-dihydro-1H-isoquinolin-2-yl]carbonyl}-3,4-dihydro-1H-isoquinolin-6-yl]-N-(5-cyano-1,2-dimethylpyrrol-3-yl)-N-(4-hydroxyphenyl)-1,2-dimethylpyrrole-3-carboxamide]",4.54,0.0426 µM,0.0094 µM
8.70,16.7,9.40,3.1,9.26,9.92,"CCn1c(C#N)cc(N(C(=O)c2cc(-c3cc4c(cc3C(=O)N3Cc5ccccc5C[C@H]3C)CN(C(=O)Cc3ccc(OCCN5CCOCC5)cc3)CC4)n(C)c2C)c2ccc(O)cc2)c1C [Example 41, N-(5-cyano-1-ethyl-2-methyl-pyrrol-3-yl)-N-(4-hydroxyphenyl)-1,2-dimethyl-5-[7-[(3R)-3-methyl-3,4-dihydro-1H-isoquinoline-2-carbonyl]-2-[2-[4-(2-morpholinoethoxy)phenyl]acetyl]-3,4-dihydro-1H-isoquinolin-6-yl]pyrrole-3-carboxamide]",5.41,0.051 µM,0.0094 µM
